# In ChEMBL document CHEMBL1201862, “PubChem BioAssay data set” (2004):
# The source made the active and inactive calls.
# Columns and labels:
# [1] = biological target: T1, Small ubiquitin-related modifier 1 (Homo sapiens, UniProt P63165); assay: inhibitors of SUMO1 partner interactions, dose response, biochemical, FRET (AID 624383); assay type: functional; details: read-out: IC50_Mean
# [2] = biological target: T1, Small ubiquitin-related modifier 1; assay: inhibitors of SUMO1 peptide binding, dose response, biochemical, fluorescence polarization, uHTS hits (AID 624382); assay type: functional; details: read-out: IC50_Mean
# [3] = biological target: T2, Low molecular weight phosphotyrosine protein phosphatase (Homo sapiens, UniProt P24666); assay type: functional; details: read-out: IC50_Mean
# T2 sequence (P24666 whole entry): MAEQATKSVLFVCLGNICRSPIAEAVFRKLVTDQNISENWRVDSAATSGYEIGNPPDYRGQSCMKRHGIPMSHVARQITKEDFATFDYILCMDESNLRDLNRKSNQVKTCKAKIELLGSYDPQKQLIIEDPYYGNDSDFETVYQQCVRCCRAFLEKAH
# [4] = biological target: T3, Carboxy-terminal domain RNA polymerase II polypeptide A small phosphatase 1 (Homo sapiens, UniProt Q9GZU7); assay: inhibitors of CTDSP1, concentration-response testing, biochemical assay, absorbance-based, actives from ultra-high-throughput screening (AID 540297); assay type: functional
# T3 sequence (Q9GZU7 whole entry): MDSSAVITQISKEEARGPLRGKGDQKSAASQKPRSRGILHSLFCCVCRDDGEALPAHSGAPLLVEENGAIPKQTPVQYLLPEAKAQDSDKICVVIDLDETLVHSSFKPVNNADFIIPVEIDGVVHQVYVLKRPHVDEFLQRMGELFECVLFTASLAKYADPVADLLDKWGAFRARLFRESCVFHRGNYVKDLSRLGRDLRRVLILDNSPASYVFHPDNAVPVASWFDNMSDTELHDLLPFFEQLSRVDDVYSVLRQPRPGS
# [5] = biological target: T2, Low molecular weight phosphotyrosine protein phosphatase; assay type: functional; details: read-out: IC50_Mean; remark: listed apart in the source
# [6] = system: INS1; assay: beta cell apoptosis inhibitors, cytokine rescue, dose response, luminescence, retest (AID 449756); assay type: functional, cell-based; details: Rattus norvegicus;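 note: cell death triggered by IL-1 beta plus TNF-alpha plus IFN-gamma mixture; protective hits raise ATP signal compared with cytokine alone wells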
# [7] = biological target: T4, Bcl-2-related protein A1 (Mus musculus, UniProt Q07440); assay type: functional;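 note: confirmatory dose–response counterscreen on Bfl-1, used to check hits from a UBC13 polyubiquitin inhibitor campaign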
# T4 sequence (Q07440 whole entry): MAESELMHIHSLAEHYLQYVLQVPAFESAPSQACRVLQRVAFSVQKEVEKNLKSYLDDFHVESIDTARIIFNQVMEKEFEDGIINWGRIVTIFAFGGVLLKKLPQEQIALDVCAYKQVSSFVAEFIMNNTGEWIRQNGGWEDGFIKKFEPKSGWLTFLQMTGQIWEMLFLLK
# [8] = biological target: T5, Apoptotic protease-activating factor 1 (Homo sapiens, UniProt O14727); assay type: functional;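 for EC50 Mean: caspase-3 cleavage of fluorogenic Rh110 DEVD substrate downstream of apoptosome activation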
# T5 sequence (O14727 whole entry): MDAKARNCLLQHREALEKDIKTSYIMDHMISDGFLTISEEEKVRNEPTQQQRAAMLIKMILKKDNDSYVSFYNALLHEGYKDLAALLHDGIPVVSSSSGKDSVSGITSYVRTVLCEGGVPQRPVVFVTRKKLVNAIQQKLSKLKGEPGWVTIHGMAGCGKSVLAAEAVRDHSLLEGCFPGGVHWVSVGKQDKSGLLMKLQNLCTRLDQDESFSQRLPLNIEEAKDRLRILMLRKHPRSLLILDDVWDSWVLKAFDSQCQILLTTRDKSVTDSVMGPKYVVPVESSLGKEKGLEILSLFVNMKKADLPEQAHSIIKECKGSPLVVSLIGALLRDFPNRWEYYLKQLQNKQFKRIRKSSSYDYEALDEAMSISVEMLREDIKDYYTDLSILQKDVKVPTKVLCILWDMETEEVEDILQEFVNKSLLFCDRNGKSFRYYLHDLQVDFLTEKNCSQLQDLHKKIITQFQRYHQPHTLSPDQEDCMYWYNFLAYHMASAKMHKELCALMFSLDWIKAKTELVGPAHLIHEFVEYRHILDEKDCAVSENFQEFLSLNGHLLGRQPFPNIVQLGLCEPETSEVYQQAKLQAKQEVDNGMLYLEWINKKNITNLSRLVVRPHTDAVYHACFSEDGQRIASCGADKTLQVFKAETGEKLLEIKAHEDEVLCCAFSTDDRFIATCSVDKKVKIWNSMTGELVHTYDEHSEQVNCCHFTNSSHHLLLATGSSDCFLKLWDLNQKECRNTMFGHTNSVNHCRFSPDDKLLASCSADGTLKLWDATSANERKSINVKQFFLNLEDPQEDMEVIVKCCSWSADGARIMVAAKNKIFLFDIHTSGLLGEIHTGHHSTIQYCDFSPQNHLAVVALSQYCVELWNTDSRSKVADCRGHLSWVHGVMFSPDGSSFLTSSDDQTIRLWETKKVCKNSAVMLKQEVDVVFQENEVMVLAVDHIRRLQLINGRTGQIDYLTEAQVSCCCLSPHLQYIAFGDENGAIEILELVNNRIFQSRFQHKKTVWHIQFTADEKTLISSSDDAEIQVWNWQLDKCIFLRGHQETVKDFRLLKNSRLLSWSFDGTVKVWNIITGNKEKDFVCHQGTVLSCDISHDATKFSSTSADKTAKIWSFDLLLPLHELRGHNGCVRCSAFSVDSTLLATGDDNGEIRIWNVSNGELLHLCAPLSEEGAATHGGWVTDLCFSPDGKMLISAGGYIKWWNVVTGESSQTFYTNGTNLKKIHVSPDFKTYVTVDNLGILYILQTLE
# [9] = biological target: T6, Ubiquitin-conjugating enzyme E2 N (Homo sapiens, UniProt P61088); assay type: functional
# T6 sequence (P61088 whole entry): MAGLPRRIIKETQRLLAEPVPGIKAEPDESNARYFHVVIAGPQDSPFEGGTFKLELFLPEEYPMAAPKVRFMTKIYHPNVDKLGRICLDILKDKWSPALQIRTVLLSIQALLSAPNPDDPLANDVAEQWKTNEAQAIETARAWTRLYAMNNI
# [10] = biological target: T6, Ubiquitin-conjugating enzyme E2 N; assay type: functional; remark: listed apart in the source
# [11] = control 3'UTR Renilla luciferase suppression, dose response, counter-screen for Shn3 inhibitor project, cell-based, Clone20-Shn3RL, cherry-picked (AID 624133); assay type: functional
# [12] = Luminescence Cell-Based Dose Retest to Confirm Inhibitors of Cancer Stem Cells. [Related pubchem assays (depositor defined):AID2717, AID2721]; assay type: functional; details: Homo sapiens
# [13] = HepG2 cell cytotoxicity, dose response, cytotoxicity control for Shn3 inhibitor project, CellTiter-Glo, cherry-picked (AID 624134); assay type: functional, cell-based
# [14] = Shn3 3'UTR reporter inhibitors, dose response, cell-based, Clone20 osteoblasts, firefly luciferase, cherry-picked (AID 624132); assay type: functional;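 note: firefly luciferase luminescence from reporter carrying the Shn3 3'UTR in osteoblasts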
# [15] = growth suppression of beta-catenin-knockout colon cells, dose response, cell-based, HCT116, human colon tumor (AID 1045); assay type: functional;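 note: HCT116 colon tumor cells with beta catenin knocked out; cells exposed to compound for 60 hours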
# [16] = biological target: Hepatocyte nuclear factor 4-alpha (Homo sapiens, UniProt P41235); assay type: functional, cell-based;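 note: biochemical luminescence-based dose-response counterscreen measuring inhibition of HNF4 dimerization, run alongside a screen for blockers of ABHD5–perilipin-5 interaction; split luciferase complementation of HNF4 fusion proteins in cell lysate measuring dimerization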
# Chain of Hepatocyte nuclear factor 4-alpha (P41235 whole entry, the tested form may be a part): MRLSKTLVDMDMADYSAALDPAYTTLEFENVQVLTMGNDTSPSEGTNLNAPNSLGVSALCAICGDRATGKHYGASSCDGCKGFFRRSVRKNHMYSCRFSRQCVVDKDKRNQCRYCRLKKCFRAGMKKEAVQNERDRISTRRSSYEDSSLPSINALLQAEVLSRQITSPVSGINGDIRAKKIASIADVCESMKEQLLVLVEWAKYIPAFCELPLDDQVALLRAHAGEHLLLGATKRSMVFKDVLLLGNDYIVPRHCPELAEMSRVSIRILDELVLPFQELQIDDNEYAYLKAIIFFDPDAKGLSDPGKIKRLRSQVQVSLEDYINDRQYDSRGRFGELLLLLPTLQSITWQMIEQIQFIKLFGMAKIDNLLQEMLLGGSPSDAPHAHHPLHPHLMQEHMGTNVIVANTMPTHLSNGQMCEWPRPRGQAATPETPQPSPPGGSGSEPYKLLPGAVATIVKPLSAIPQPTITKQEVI
# [17] = growth suppression of PTEN-null colon cells, dose response, cell-based, HCT116 PTEN knockout (AID 1047); assay type: functional;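 note: HCT116 colon tumor cells with PTEN knocked out; cells exposed to compound for 60 hours before readout; potency for loss of cell viability measured by luminescence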
# [18] = biological target: Ras and Rab interactor 1/Tyrosine-protein kinase ABL1 (Homo sapiens, UniProt P00519+Q13671); assay type: functional;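 note: biochemical TR-FRET dose-response test measuring inhibition of binding between Rin1 and Abl proteins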
# Chain of Ras and Rab interactor 1/Tyrosine-protein kinase ABL1 (P00519 whole entry, the tested form may be a part): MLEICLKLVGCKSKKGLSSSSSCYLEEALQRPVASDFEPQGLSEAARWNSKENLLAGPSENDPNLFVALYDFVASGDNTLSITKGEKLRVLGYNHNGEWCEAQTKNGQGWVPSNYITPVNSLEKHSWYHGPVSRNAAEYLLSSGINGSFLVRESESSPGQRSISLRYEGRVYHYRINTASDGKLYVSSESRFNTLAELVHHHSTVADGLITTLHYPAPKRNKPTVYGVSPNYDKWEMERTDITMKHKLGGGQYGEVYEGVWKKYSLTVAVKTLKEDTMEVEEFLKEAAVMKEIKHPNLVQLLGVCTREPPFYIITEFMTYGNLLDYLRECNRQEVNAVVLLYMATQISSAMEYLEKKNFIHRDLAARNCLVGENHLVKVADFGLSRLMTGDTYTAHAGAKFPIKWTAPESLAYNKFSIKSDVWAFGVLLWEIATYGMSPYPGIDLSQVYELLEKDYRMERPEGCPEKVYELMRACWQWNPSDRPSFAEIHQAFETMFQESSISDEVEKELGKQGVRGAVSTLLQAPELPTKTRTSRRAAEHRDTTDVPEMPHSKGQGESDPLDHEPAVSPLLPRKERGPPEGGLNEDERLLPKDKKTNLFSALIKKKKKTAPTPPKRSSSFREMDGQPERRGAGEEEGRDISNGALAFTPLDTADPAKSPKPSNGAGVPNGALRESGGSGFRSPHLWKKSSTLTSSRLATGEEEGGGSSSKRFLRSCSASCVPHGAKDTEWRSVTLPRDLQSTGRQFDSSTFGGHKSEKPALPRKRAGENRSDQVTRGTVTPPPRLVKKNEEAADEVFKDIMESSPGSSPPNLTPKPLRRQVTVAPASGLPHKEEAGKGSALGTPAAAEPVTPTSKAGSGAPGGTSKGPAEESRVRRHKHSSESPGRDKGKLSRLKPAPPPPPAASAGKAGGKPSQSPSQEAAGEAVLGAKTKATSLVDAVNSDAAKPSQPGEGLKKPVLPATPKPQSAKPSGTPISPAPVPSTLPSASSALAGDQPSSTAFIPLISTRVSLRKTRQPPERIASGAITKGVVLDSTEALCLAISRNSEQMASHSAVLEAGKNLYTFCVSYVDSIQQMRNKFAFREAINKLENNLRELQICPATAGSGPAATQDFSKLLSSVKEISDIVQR
# Chain of Ras and Rab interactor 1/Tyrosine-protein kinase ABL1 (Q13671 whole entry, the tested form may be a part): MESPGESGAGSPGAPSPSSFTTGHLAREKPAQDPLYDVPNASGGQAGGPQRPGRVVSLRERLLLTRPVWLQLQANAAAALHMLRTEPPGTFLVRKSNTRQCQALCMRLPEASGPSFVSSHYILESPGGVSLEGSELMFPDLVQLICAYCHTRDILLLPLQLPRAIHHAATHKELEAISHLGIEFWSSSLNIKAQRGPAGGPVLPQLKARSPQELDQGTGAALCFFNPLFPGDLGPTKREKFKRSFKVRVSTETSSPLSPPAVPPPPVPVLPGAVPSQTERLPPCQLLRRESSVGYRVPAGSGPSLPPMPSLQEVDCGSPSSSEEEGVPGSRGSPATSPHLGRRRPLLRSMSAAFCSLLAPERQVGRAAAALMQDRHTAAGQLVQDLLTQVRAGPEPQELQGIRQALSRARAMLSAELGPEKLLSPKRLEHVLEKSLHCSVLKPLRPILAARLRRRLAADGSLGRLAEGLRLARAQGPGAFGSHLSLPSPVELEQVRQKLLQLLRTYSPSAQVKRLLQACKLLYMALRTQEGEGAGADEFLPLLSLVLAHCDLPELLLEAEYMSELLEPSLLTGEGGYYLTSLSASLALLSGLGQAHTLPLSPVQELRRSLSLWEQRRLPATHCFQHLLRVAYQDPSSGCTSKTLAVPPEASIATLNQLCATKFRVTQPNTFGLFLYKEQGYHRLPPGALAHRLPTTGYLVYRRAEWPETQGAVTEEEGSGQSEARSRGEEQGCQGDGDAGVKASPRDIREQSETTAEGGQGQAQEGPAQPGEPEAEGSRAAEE
# [19] = ARNT/TACC3 interaction disruptors, potency, confirmation, biochemical, AlphaScreen, cherry-picked samples (AID 651703); assay type: functional, Homo sapiens;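 note: His-tagged ARNT PAS-B domain paired with GST-TACC3 E629A dimer coactivator fragment; potency of inhibitors that break up the complex and lower AlphaScreen signal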
# [20] = biological target: T5, Apoptotic protease-activating factor 1; assay: SAR analysis of small molecule Activators of Apaf-1 in a Fluorescent assay.; assay type: functional; details: read-out: EC50_Mean
# [21] = system: HEK293; assay: inhibitors of LMP1-driven NF-kB reporter, dose response, cell-based, HEK293, luciferase, cherry-pick (AID 588343); assay type: functional; details: Homo sapiens
# [22] = biological target: T7, DNA repair and recombination protein RAD54-like (Homo sapiens, UniProt Q92698); assay: inhibitors of human RAD54 branch migration, confirmation, biochemical, fluorescence, cherry-picked samples, dose series (AID 651657); assay type: functional
# T7 sequence (Q92698 whole entry): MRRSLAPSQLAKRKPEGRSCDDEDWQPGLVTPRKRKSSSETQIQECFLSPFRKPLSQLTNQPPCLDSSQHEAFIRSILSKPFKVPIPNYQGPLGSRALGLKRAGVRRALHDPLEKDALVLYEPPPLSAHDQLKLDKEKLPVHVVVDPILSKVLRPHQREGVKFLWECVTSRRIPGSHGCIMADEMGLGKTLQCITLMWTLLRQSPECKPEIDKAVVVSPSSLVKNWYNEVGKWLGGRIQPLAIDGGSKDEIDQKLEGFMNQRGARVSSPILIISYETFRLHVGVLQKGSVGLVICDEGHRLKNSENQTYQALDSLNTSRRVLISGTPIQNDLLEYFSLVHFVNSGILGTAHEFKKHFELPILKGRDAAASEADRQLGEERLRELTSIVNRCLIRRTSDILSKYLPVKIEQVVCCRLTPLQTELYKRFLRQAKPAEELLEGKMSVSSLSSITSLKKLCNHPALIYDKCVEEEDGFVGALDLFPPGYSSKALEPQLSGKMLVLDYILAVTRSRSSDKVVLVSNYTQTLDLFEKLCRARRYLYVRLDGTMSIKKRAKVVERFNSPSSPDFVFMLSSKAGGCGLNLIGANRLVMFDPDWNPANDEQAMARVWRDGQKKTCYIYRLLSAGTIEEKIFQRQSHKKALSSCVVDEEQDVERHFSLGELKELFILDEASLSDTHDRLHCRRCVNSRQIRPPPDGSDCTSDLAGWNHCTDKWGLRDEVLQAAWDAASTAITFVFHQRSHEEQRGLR
# [23] = system: H9c2; assay: cells; assay type: functional, cell-based; details: Rattus norvegicus, H9c2, Myocardium;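 note: confirmatory concentration-response retest of ultra-high-throughput screening hits for modulation of myocardial damage; cell death induced by hydrogen peroxide oxidative stress; compound pretreatment for 60 min then peroxide exposure for 2 h; potency is for protecting the cells against peroxide damage rather than for killing them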
# [24] = biological target: T8, Interleukin-8 (Homo sapiens, UniProt P10145); assay: Dose Response confirmation of uHTS small molecule hits for cystic fibrosis induced NFkb Inhibitors in a PAF-induced IL8 counterscreen.; assay type: functional; details: read-out: IC50_Mean
# T8 sequence (P10145 whole entry): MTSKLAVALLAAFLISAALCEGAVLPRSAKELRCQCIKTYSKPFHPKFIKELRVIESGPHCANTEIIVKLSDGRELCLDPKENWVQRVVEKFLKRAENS
# [25] = system: HEK293; assay: cells; assay type: functional, cell-based; details: Homo sapiens
# [26] = system: HEK293; assay: cells; assay type: functional, cell-based; details: Homo sapiens; remark: listed apart in the source
# [27] = system: HEK293; assay: NOD2 signaling inhibitors in MDP-stimulated cells, cell-based, uHTS, luminescence (AID 2001); assay type: functional; details: Homo sapiens
# [28] = biological target: Nucleotide-binding oligomerization domain-containing protein 2 (Homo sapiens, UniProt Q9HC29); assay: NOD2 signaling inhibitors, cell-based, luminescence, uHTS, HEK293 (AID 1566); assay type: functional
# Chain of Nucleotide-binding oligomerization domain-containing protein 2 (Q9HC29 whole entry, the tested form may be a part): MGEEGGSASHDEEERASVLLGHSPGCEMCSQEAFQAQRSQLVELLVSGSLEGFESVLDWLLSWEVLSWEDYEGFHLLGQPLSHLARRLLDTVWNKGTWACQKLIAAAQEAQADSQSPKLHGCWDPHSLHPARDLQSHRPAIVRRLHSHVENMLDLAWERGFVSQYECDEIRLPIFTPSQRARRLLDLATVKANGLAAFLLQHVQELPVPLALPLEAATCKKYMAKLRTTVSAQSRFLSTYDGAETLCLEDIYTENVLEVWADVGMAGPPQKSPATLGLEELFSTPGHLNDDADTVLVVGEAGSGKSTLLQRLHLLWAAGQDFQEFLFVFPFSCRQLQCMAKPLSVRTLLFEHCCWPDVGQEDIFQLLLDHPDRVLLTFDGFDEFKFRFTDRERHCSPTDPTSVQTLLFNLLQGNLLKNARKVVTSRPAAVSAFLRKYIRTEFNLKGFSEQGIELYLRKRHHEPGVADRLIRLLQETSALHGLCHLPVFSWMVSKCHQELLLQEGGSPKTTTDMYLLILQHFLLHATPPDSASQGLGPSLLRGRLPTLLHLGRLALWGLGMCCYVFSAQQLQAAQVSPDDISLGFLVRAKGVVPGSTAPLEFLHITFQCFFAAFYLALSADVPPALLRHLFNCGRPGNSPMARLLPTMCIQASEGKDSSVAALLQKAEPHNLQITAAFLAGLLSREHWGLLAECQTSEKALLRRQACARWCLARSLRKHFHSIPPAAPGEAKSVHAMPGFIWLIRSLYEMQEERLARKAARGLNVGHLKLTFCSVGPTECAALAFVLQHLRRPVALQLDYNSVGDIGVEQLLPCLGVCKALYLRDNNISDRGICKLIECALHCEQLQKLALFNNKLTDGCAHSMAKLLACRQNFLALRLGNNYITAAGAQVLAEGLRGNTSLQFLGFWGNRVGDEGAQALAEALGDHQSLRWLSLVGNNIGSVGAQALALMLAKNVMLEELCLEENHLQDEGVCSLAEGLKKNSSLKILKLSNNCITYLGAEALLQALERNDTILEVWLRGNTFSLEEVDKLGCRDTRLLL
# [29] = system: HEK293; assay: NOD1 signaling inhibitors, primary screen, cell-based, luminescence, uHTS (AID 1578); assay type: functional; details: Homo sapiens
# [30] = system: HEK293; assay: cells; assay type: functional, cell-based; details: Homo sapiens; remark: listed apart in the source
# T1 sequence (P63165 whole entry): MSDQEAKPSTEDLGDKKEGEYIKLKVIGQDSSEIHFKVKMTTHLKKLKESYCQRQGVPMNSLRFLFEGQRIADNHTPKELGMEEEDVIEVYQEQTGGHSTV
smiles,measurement,setting,value
CC(=O)Nc1ccc(NC(=O)c2cc(-c3ccc(C)cc3O)n[nH]2)cc1,IC50,[1],13.3 µM (active)
same,IC50,[2],> 66.6 µM (inactive)
COc1ccc(NC(=O)/C(C#N)=C\c2ccc(OCc3ccc(C(=O)O)cc3)c(OC)c2)cc1,IC50,[3],35 µM (inactive)
same,IC50,[4],1.57 µM (active)
same,IC50,[5],31.5 µM (inactive)
NC1=NC[C@@H](CC2CCCCC2)N1CCc1cc(C(F)(F)F)cc(C(F)(F)F)c1,AC50,[6],7.06 µM (active)
same,IC50,[7],> 20 µM (inactive)
same,IC50,[8],60.4 µM (active)
same,IC50,[9],11.5 µM (active)
same,IC50,[10],19.6 µM (active)
same,AC50,[11],24.8 µM (active)
same,AC50,[12],3.19 µM (active)
same,AC50,[13],14.7 µM (active)
same,AC50,[14],9.92 µM (active)
CC1=CC(C)(C)Nc2ccc(OC(=O)CN3C(=O)C4CCCCC4C3=O)cc21 (configuration not stated),EC50,[15],4.74 µM (active)
same,IC50,[16],4.53 µM (active)
same,EC50,[17],7.23 µM (active)
CCOC(=O)N1CCN(C(=O)Nc2ccc(NC(=O)N3CCN(C(=O)OCC)CC3)cc2)CC1,IC50,[18],7.81 µM (active)
O=C(NCCCn1ccnc1)c1cc2cc([N+](=O)[O-])ccc2oc1=O,AC50,[19],131 µM (active)
CCOC(=O)CCCCCC(=O)Nc1ccc2c(c1)C(=O)N([C@H](C)CO)C[C@@H](C)[C@@H](CN(C)C(=O)CCC(F)(F)F)OCCCC[C@H](C)O2,IC50,[18],3.59 µM (active)
CC(CNc1ccc(Oc2ccccc2)cc1)C(=O)O (configuration not stated),EC50,[20],> 100 µM (inactive)
COc1ccc(C(=O)Nc2cc(C)c(NC(=O)c3ccccc3OC)cn2)cc1,IC50,[1],1.48 µM (active)
same,AC50,[21],169 µM (active)
same,AC50,[22],100 µM (inactive)
same,IC50,[2],> 66.6 µM (inactive)
COc1ccc(CNc2nn3c(-c4cccc(C(=O)N(C)C)c4)cnc3s2)cc1,IC50,[23],42.1 µM (inactive)
same,IC50,[24],18 µM (inactive)
CCCCc1c(C)c(C#N)c2nc3ccccc3n2c1O,IC50,[8],7.79 µM (active)
same,IC50,[25],13.1 µM (active)
same,IC50,[26],> 20 µM (inactive)
same,IC50,[27],10.8 µM (inactive)
same,EC50,[28],8.9 µM (active)
same,EC50,[29],4.1 µM (active)
same,IC50,[30],> 20 µM (inactive)
CCCCn1c(SCC(=O)NCc2ccco2)nnc1-c1ccoc1C,IC50,[4],6.25 µM (active)
same,IC50,[16],12.9 µM (inactive)
COc1ccc(C2=NOC3(CC(=O)N(c4ccc(C)cc4)C3=O)C2)cc1 (configuration not stated),EC50,[20],> 100 µM (inactive)
